{"source": "patent US5858995A", "about": "“Benzofuran derivatives useful as inhibitors of bone resorption” (Fujisawa Pharmaceutical Co., Ltd., priority 1994, dated 1999)", "system": "PTH-induced bone resorption (calvariae)", "experiment": "Bone organ culture: inhibition of PTH-induced bone resorption in rat calvariae", "assay_type": "cell-based", "details": "Compound dose = 1 × 10^-5 (M); calvariae from Wistar rats, 10^-8 M human PTH (1-34); calcium in medium after six days", "procedure": "Test (Bone organ culture)\nCalvariae from Wistar rats were excised and cultured in wells of 12-well culture plates containing 2 ml of Dulbecco's modified minimum essential medium supplemented with 10% fetal bovine serum and 10^-8 M human parathyroid hormone fragment (1-34) [PTH] in the presence of the test compound. In control dishes, PTH was not added. Control and PTH control were exposed to an equivalent concentration of the vehicle. Six days later, the concentration of calcium in the medium was measured by methylxylenol blue method and the percentage of inhibition of PTH-induced bone resorption was calculated according to following formula. [formula] Test Result", "data": [{"smiles": "Cc1oc2c(NC(=O)c3c(Cl)cccc3Cl)cccc2c1C", "note": "[Test Compound (1), 7-(2,6-Dichlorobenzoylamino)-2,3-dimethylbenzo[b]furan]", "values": [{"measurement": "Inhibition (%) of PTH-induced bone resorption", "value": 100, "unit": "%"}]}]}
